{"source": "patent US4415558A", "about": "“CRF And analogs” (The Salk Institute for Biological Studies, priority 1982, dated 1983)", "key": {"[1]": {"tested_on": "ACTH and β-END-LI secretion", "assay": "ACTH and β-END-LI secretion in vivo in rat preparations", "experimental": "(§1) The synthetic and the natural CRF were examined for their effects on the secretion of ACTH and β-endorphin in vitro and the synthetic CRF was also examined in vivo. The high potency of synthetic and natural CRF to stimulate the secretion of ACTH and β-endorphin by cultured rat pituitary cells was measured. […] The secretory response to maximal (>5 nM) concentrations of CRF is at a plateau level. In vivo doses from 30 ng to 3 μg/Kg of body weight rapidly elevated ACTH and β-endorphin-like (β-END-LI) secretions 5-20 fold.\n(§2) Plasma levels of ACTH and β-END-LI are elevated for at least 5-20 minutes following the intravenous administration of CRF to nembutal-anesthesized male rats and to quiescent male or female rats with indwelling intravenous cannulae. […] Mean cartoid blood pressure in a urethane-anesthesized rat fell from 87 to 72±2 mm Hg and remained at that level for 30 minutes following an injection equal to 3 μg CRF/Kg body weight; the subsequent administration of an injection equal to 30 μg CRF/Kg body weight lowered mean blood pressure to 42±3 mm Hg for more than 2 hours."}, "[2]": {"tested_on": "cultured rat pituitary cells", "assay": "Secretion of ACTH and β-endorphin by cultured rat pituitary cells", "assay_type": "cell-based", "experimental": "as §1"}, "Blood pressure in dogs": {"assay": "Blood pressure in dogs", "assay_type": "in vivo"}, "[3]": {"assay": "Blood pressure in rats (mean carotid blood pressure, urethane-anesthetized rat)", "assay_type": "in vivo", "conditions": "for Effect upon blood pressure (in words): rats", "experimental": "as §2"}, "[4]": {"conditions": "urethane-anesthetized rat, subsequent 30 μg CRF/Kg body weight"}}, "note": "Entries after “also recorded” stand apart in the source; their conditions may differ.", "data": [{"substance": "H-Ser-Gln-Glu-Pro-Pro-Ile-Ser-Leu-Asp-Leu-Thr-Phe-His-Leu-Leu-Arg-Glu-Val- Leu-Glu-Met-Thr-Lys-Ala-Asp-Gln-Leu-Ala-Gln-Gln-Ala-His-Ser-Asn-Arg-Lys-Leu-Leu-Asp-Ile-Ala-NH2 [synthetic CRF]", "values": [{"measurement": "Stimulation of ACTH and β-END-LI secretion in vivo (in words)", "setting": "[1]", "value": "stimulate ACTH and β-endorphin activies"}, {"measurement": "Elevation of ACTH and β-endorphin-like (β-END-LI) secretions", "setting": "[1]; in vivo doses from 30 ng to 3 μg/Kg of body weight", "value": "5-20 fold"}, {"measurement": "Stimulation of ACTH and β-END-LI secretion in vivo (in words)", "setting": "[1]; listed as Synthetic CRF", "value": "powerful stimulator of ACTH and β-END-LI secretion"}, {"measurement": "Time for which plasma levels of ACTH and β-END-LI are elevated", "setting": "[1]; intravenous administration, nembutal-anesthetized male rats and quiescent male or female rats with indwelling intravenous cannulae", "value": "5 to 20", "unit": "min"}, {"measurement": "Maximal concentrations (secretory response at a plateau level)", "setting": "[2]; cultured rat pituitary cells", "value": "> 5", "unit": "nM"}, {"measurement": "EC50", "setting": "[2]; cultured rat pituitary cells, concentration giving half-maximal response", "value": "~0.1", "unit": "nM"}, {"measurement": "Minimal response, secretion of ACTH and β-endorphin", "setting": "[2]; cultured rat pituitary cells, concentration giving minimal response", "value": "about 10 picomolar"}, {"measurement": "Stimulation of ACTH and β-endorphin secretion in vitro (in words)", "setting": "[2]; in vitro", "value": "stimulate ACTH and β-endorphin activies; also recorded: high potency"}, {"measurement": "Effect upon blood pressure (in words)", "setting": "Blood pressure in dogs", "value": "dramatic effect upon blood pressure"}, {"measurement": "Effect upon blood pressure (in words)", "setting": "[3]; listed as CRF", "value": "dramatic effect upon blood pressure"}, {"measurement": "Effect upon blood pressure (in words)", "setting": "[3]; listed as Synthetic CRF", "value": "substantially lower blood pressure for an extended time period"}, {"measurement": "Time blood pressure remained at lowered level", "setting": "[3]; urethane-anesthetized rat, 3 μg CRF/Kg body weight", "value": 30, "unit": "min"}, {"measurement": "Mean carotid blood pressure after injection", "setting": "[3]; urethane-anesthetized rat, 3 μg CRF/Kg body weight, fell from 87", "value": "72±2", "unit": "mm Hg"}, {"measurement": "Duration of lowered mean blood pressure", "setting": "[3]; [4]", "value": "more than 2 hours"}, {"measurement": "Mean blood pressure after subsequent injection", "setting": "[3]; [4]", "value": "42±3", "unit": "mm Hg"}]}]}
